Test results published in ChEMBL document CHEMBL4739716, “Gpr139 receptor modulators” (2020).

Assays:
[1] = target: T1, Probable G-protein coupled receptor 139 (Rattus norvegicus, UniProt P0C0W8); experiment: Agonist activity at rat GPR139 expressed in CHO-K1 cells assessed as increase in calcium flux by calcium 5 dye based FLIPR assay; assay type: cell-based
T1 sequence (P0C0W8 whole entry): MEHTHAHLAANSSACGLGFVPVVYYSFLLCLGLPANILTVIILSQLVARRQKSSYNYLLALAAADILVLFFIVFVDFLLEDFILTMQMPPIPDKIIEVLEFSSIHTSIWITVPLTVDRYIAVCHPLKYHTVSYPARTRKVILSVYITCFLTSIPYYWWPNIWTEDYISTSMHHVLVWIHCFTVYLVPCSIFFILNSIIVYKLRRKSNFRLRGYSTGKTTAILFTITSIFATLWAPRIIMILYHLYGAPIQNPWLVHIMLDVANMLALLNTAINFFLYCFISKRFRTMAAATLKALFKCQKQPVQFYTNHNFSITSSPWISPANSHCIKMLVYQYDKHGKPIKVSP

[2] = target: T2, Probable G-protein coupled receptor 139 (Homo sapiens, UniProt Q6DWJ6); experiment: Agonist activity at human GPR139 expressed in CHO-K1 cells assessed as induction of beta-arrestin 2 recruitment incubated for 90 mins by PathHunter assay; assay type: cell-based
T2 sequence (Q6DWJ6 whole entry): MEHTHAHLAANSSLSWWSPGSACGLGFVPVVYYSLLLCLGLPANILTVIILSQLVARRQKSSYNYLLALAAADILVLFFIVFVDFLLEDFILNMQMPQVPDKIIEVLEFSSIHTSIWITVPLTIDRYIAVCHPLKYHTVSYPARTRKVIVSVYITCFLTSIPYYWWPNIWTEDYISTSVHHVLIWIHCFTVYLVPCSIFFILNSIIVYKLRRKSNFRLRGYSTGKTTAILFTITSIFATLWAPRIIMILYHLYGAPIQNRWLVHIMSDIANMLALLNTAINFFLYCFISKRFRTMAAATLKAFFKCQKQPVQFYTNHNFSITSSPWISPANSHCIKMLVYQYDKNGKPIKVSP

[3] = target: T3, Probable G-protein coupled receptor 139 (Homo sapiens) (UniProt Q6DWJ6); experiment: Agonist activity at human GPR139 expressed in CHO-K1 cells assessed as induction of beta-arrestin 2 recruitment incubated for 90 mins by PathHunter assay relative to JNJ63533054; assay type: cell-based
T3 sequence (whole entry): T2 sequence (Q6DWJ6 whole entry)

[4] = target: T3, Probable G-protein coupled receptor 139 (Homo sapiens); experiment: Agonist activity at human GPR139 expressed in CHO-K1 cells assessed as increase in calcium flux by calcium 5 dye based FLIPR assay relative to JNJ63533054; assay type: functional, cell-based
[5] = target: T2, Probable G-protein coupled receptor 139; experiment: Agonist activity at human GPR139 expressed in CHO-K1 cells assessed as increase in calcium flux by calcium 5 dye based FLIPR assay; assay type: functional, cell-based
[6] = target: T4, Probable G-protein coupled receptor 139 (Rattus norvegicus) (UniProt P0C0W8); experiment: Agonist activity at rat GPR139 expressed in CHO-K1 cells assessed as increase in calcium flux by calcium 5 dye based FLIPR assay relative to JNJ63533054; assay type: cell-based
T4 sequence (whole entry): T1 sequence (P0C0W8 whole entry)

Row | SMILES | EC50 [2] | EC50 ([1]; cho-k1) | Emax ([3]; filed as agonist) | Emax ([4]; filed as agonist) | EC50 ([5]; cho-k1) | Emax ([6]; filed as agonist) | EC50 ([2]; cho-k1) | also measured
1 | Cc1ccc([C@H](C)NC(=O)C(C)n2nc3ccccn3c2=O)cc1 (stereo in doubt; form 2) [listing 1 of 2 here] | ≥ 100 nM | – | – | – | – | – | – | EC50 [1]: < 1 nM
2 | Cc1ccc([C@H](C)NC(=O)Cn2nc3cccnn3c2=O)cc1Cl | ≥ 100 nM | 1 nM | > 80% | > 80% | 1 nM | 50% | – | –
3 | Cc1ccnc2nn(CC(=O)N[C@@H](C)c3ccc(Cl)c(F)c3)c(=O)n12 | – | 10 nM | 50% | > 80% | – | 50% | 1 nM | EC50 [5]: < 1 nM
4 | COc1cccc2nn(CC(=O)N[C@@H](C)c3ccc(Cl)cc3)c(=O)n12 | – | 1 nM | 50% | 50% | – | 50% | 1 nM | EC50 [5]: < 1 nM
5 | Cc1ccn2c(=O)n(CC(=O)N[C@@H](C)c3ccc(Cl)c(F)c3)nc2n1 | – | – | – | > 80% | 1 nM | 50% | 1 nM | EC50 [1]: ≥ 100 nM; Emax [3]: 25%
6 | C[C@H](NC(=O)Cn1nc2c(C(F)(F)F)ccnn2c1=O)c1ccc(Cl)c(F)c1 | – | – | 50% | > 80% | – | – | 1 nM | EC50 [5]: < 1 nM
7 | Cc1ccc([C@H](C)NC(=O)Cn2nc3c(NCC(F)F)cccn3c2=O)cc1 | < 1 nM | – | 50% | > 80% | – | > 80% | – | EC50 [1]: < 1 nM; EC50 [5]: < 1 nM
8 | Cc1cnn2c(=O)n(CC(=O)N[C@@H](C)c3ccc(Cl)c(F)c3)nc2c1 | ≥ 100 nM | 1 nM | 50% | > 80% | 1 nM | > 80% | – | –
9 | COC1CCN(c2ccn3c(=O)n(CC(=O)N[C@@H](C)c4ccc(OC(F)(F)F)cc4)nc3c2)CC1 | ≥ 100 nM | 1 nM | > 80% | 50% | 1 nM | 50% | – | –
10 | Cc1cc(Cl)ccc1[C@H](C)NC(=O)Cn1nc2ccccn2c1=O | – | 1 nM | > 80% | > 80% | 1 nM | 50% | 1 nM | –
11 | Cc1ccc([C@H](C)NC(=O)Cn2nc3ccccn3c2=O)cc1 | – | 1 nM | 50% | > 80% | 1 nM | 50% | 10 nM | –
12 | Cc1ccc([C@H](C)NC(=O)C(C)n2nc3ccccn3c2=O)cc1 (stereo in doubt; form 2) [listing 2 of 2 here] | – | – | > 80% | > 80% | – | > 80% | – | –
13 | Cc1ccc([C@H](C)NC(=O)Cn2nc3ncccn3c2=O)cc1F | – | 1 nM | 50% | > 80% | 1 nM | 50% | 10 nM | –
14 | COc1ccc2nn(CC(=O)N[C@@H](C)c3ccc(C)cc3)c(=O)n2c1 | < 1 nM | – | – | > 80% | 1 nM | – | – | EC50 [1]: < 1 nM; Emax [3]: 25%; Emax [6]: 25%
15 | CC(C(=O)N[C@@H](C)c1ccc(Cl)c(F)c1)n1nc2ncccn2c1=O (stereo in doubt; form 2) [listing 1 of 2 here] | – | – | – | – | – | – | 1 nM | EC50 [1]: ≥ 100 nM
16 | CC(C(=O)N[C@@H](C)c1ccc(Cl)c(F)c1)n1nc2cccnn2c1=O (stereo in doubt; I-6-1) [listing 1 of 2 here] | ≥ 100 nM | 10 nM | – | – | 10 nM | – | – | –
17 | C[C@H](NC(=O)Cn1nc2ccccn2c1=O)c1ccc(-c2ccccc2)cc1 | ≥ 100 nM | – | – | – | 10 nM | – | – | Emax [3]: < 25%; Emax [4]: 25%

Row | SMILES | EC50 [2] | EC50 ([1]; cho-k1) | Emax ([3]; filed as agonist) | Emax ([4]; filed as agonist) | EC50 ([5]; cho-k1) | Emax ([6]; filed as agonist) | EC50 ([2]; cho-k1) | also measured
18 | CNc1ccnn2c(=O)n(CC(=O)N[C@@H](C)c3ccc(Cl)c(F)c3)nc12 | – | – | > 80% | > 80% | – | – | 1 nM | EC50 [5]: < 1 nM
19 | C[C@H](NC(=O)Cn1nc2c(N3CCOCC3)ccnn2c1=O)c1ccc(Cl)c(F)c1 | ≥ 100 nM | – | > 80% | > 80% | – | – | – | EC50 [5]: < 1 nM
20 | CC(C(=O)N[C@@H](C)c1ccc(Cl)c(F)c1)n1nc2ccccn2c1=O (stereo in doubt; form 2) [listing 1 of 2 here] | – | 1 nM | – | – | 1 nM | – | 10 nM | –
21 | COc1ccnn2c(=O)n(CC(=O)N[C@@H](C)c3ccc(Cl)c(F)c3)nc12 | – | – | > 80% | > 80% | – | – | 1 nM | EC50 [5]: < 1 nM
22 | CC(C(=O)N[C@@H](C)c1ccc(Cl)c(F)c1)n1nc2ccccn2c1=O (stereo in doubt; form 1) [listing 1 of 2 here] | – | – | > 80% | > 80% | – | 50% | – | –
23 | CC(C(=O)N[C@@H](C)c1ccc(Cl)c(F)c1)n1nc2ncccn2c1=O (stereo in doubt; form 1) [listing 1 of 2 here] | – | – | 50% | > 80% | – | 50% | – | –
24 | CC(C(=O)N[C@@H](C)c1ccc(Cl)c(F)c1)n1nc2ncccn2c1=O (stereo in doubt; form 2) [listing 2 of 2 here] | – | – | 50% | > 80% | – | – | – | Emax [6]: 25%
25 | CC(C(=O)N[C@@H](C)c1ccc(Cl)c(F)c1)n1nc2ccccn2c1=O (stereo in doubt; form 1) [listing 2 of 2 here] | < 1 nM | – | – | – | – | – | – | EC50 [1]: < 1 nM; EC50 [5]: < 1 nM
26 | C[C@H](NC(=O)Cn1nc2ccc(C3CC3)nn2c1=O)c1ccc(Cl)c(F)c1 | – | – | 50% | > 80% | – | – | 1 nM | EC50 [5]: < 1 nM
27 | CC(C(=O)N[C@@H](C)c1ccc(Cl)c(F)c1)n1nc2ccccn2c1=O (stereo in doubt; form 2) [listing 2 of 2 here] | – | – | 50% | > 80% | – | – | – | Emax [6]: 25%
28 | CC(C(=O)N[C@@H](C)c1ccc(Cl)c(F)c1)n1nc2cccnn2c1=O (stereo in doubt; I-6-2) [listing 1 of 2 here] | – | – | 50% | > 80% | – | > 80% | – | –
29 | CC(C(=O)N[C@@H](C)c1ccc(Cl)c(F)c1)n1nc2ncccn2c1=O (stereo in doubt; form 1) [listing 2 of 2 here] | ≥ 100 nM | 10 nM | – | – | 1 nM | – | – | –
30 | CC(C(=O)N[C@@H](C)c1ccc(Cl)c(F)c1)n1nc2cccnn2c1=O (stereo in doubt; I-6-1) [listing 2 of 2 here] | – | – | – | > 80% | – | 50% | – | Emax [3]: 25%
31 | O=C(Cn1nc2cccnn2c1=O)N[C@H](c1ccc(Cl)c(F)c1)C1CC1 | ≥ 100 nM | – | – | 50% | 1 nM | – | – | Emax [3]: < 25%
32 | CC(C(=O)N[C@@H](C)c1ccc(Cl)c(F)c1)n1nc2cccnn2c1=O (stereo in doubt; I-6-2) [listing 2 of 2 here] | – | 1 nM | – | – | 1 nM | – | 10 nM | –
33 | Cc1ccc([C@H](C)NC(=O)C(C)n2nc3ccccn3c2=O)cc1 (stereo in doubt; form 3) | – | – | 50% | > 80% | – | – | – | Emax [6]: 25%
